In the test the test system is HEK293T cells carrying the ATF4 luciferase reporter. The test can be described thus: ATF4-Luc assay, in vitro model of Vanishing Cell White Matter Disease (VWMD). The format is cell-based. As to conditions: Homo sapiens, HEK-293T, 1 μg/mL tunicamycin, 7 hours, One Glo luminescence. The gist of the method:
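Stable HEK293T line with human ATF4 5′-UTR–firefly luciferase reporter treated with 1 μg/mL tunicamycin plus 200 nM compound for 7 h. Luminescence read; EC50 derived.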
Take `O=C(COc1ccc(Cl)c(F)c1)NC12CC(NC(=O)c3ccc(-c4ccco4)cn3)(C1)C2` [Compound 267, N-{3-[2-(4-chloro-3-fluorophenoxy)acetamido]bicyclo[1.1.1]pentan-1-yl}-5-(furan-2-yl)pyridine-2-carboxamide]: the EC50 was < 0.05 µM.

Consider `O=C(COc1ccc(Cl)c(F)c1)NC12CC(NC(=O)c3csc(C4CC4)n3)(C1)C2` [Compound 655, N-{3-[2-(4-chloro-3-fluorophenoxy)acetamido]bicyclo[1.1.1]pentan-1-yl}-2-cyclopropyl-1,3-thiazole-4-carboxamide], for which the EC50 was in the range of 0.05 to 0.25 µM.

For `O=C(COc1ccc(Cl)c(F)c1)NC12CC(Nc3nnc(-c4ccccc4)o3)(C1)C2` [Compound 404, 2-(4-chloro-3-fluorophenoxy)-N-{3-[(5-phenyl-1,3,4-oxadiazol-2-yl)amino]bicyclo[1.1.1]pentan-1-yl}acetamide], the EC50 is > 2 µM.

Regarding `Cc1nc2ccc(C(=O)NC34CC(NC(=O)COc5ccc(Cl)c(F)c5)(C3)C4)cc2o1` [Compound 341, N-{3-[2-(4-chloro-3-fluorophenoxy)acetamido]bicyclo[1.1.1]pentan-1-yl}-2-methyl-1,3-benzoxazole-6-carboxamide], the EC50 is > 2 µM.

On to `Cc1nc(C(=O)NC23CCC(NC(=O)COc4ccc(Cl)c(F)c4)(CC2)[C@@H](O)C3)n[nH]1` [Compound 673, N-{(3S)-4-[2-(4-chloro-3-fluorophenoxy)acetamido]-3-hydroxybicyclo[2.2.2]octan-1-yl}-5-methyl-1H-1,2,4-triazole-3-carboxamide], for which the EC50 was 0.05 to 0.25 µM.

In the case of `O=C(COc1ccc(Cl)c(Cl)c1)NC12CC(NC(=O)c3ccc(C(F)F)nc3)(C1)C2` [Compound 927, N-{3-[2-(3,4-dichlorophenoxy)acetamido]bicyclo[1.1.1]pentan-1-yl}-6-(difluoromethyl)pyridine-3-carboxamide], the EC50 is 0.05 to 0.25 µM.

Regarding `O=C(COc1ccc(Cl)c(F)c1)NC12CCC(NC(=O)c3cc(C(F)(F)F)no3)(CC1)C[C@@H]2O` [Compound 704, N-{(3S)-4-[2-(4-chloro-3-fluorophenoxy)acetamido]-3-hydroxybicyclo[2.2.2]octan-1-yl}-3-(trifluoromethyl)-1,2-oxazole-5-carboxamide], the half-maximal effective concentration (EC50) was < 0.05 µM.

Regarding `O=C(COc1ccc(Cl)c(F)c1)NC12CC(NC(=O)c3ccncn3)(C1)C2` [Compound 187, N-{3-[2-(4-chloro-3-fluorophenoxy)acetamido]bicyclo[1.1.1]pentan-1-yl}pyrimidine-4-carboxamide], the 50% effective concentration (EC50) fell in the range of 1 to 2 µM.

As to `O=C(COc1ccc(Cl)c(F)c1)NC12CCC(NC(=O)c3ccc(F)cn3)(CC1)C(O)C2` (centres unmarked) [Compound 168, N-{4-[2-(4-chloro-3-fluorophenoxy)acetamido]-2-hydroxybicyclo[2.2.2]octan-1-yl}-5-fluoropyridine-2-carboxamide], the EC50 lay in the range of 0.05 to 0.25 µM.

`O=C(COc1ccc(Cl)c(F)c1)NC12CC(NC(=O)c3ccc4cc(F)ccc4n3)(C1)C2` [Compound 929, N-{3-[2-(4-chloro-3-fluorophenoxy)acetamido]bicyclo[1.1.1]pentan-1-yl}-6-fluoroquinoline-2-carboxamide]: the EC50 was < 0.05 µM.

As for `O=C(COc1ccc(Cl)c(F)c1)NC12CCC(NC(=O)c3ccsn3)(CC1)C[C@@H]2O` [Compound 695, N-{(3S)-4-[2-(4-chloro-3-fluorophenoxy)acetamido]-3-hydroxybicyclo[2.2.2]octan-1-yl}-1,2-thiazole-3-carboxamide], the EC50 is < 0.05 µM.

With `O=C(COc1ccc(Cl)c(F)c1)NC12CC(NC(=O)c3cnoc3C3CC3)(C1)C2` [Compound 900, N-{3-[2-(4-chloro-3-fluorophenoxy)acetamido]bicyclo[1.1.1]pentan-1-yl}-5-cyclopropyl-1,2-oxazole-4-carboxamide], the 50% effective concentration (EC50) is > 2 µM.

With `Cc1cnc(C(=O)NC23CC(NC(=O)COc4ccc(Cl)c(F)c4)(C2)C3)s1` [Compound 469, N-{3-[2-(4-chloro-3-fluorophenoxy)acetamido]bicyclo[1.1.1]pentan-1-yl}-5-methyl-1,3-thiazole-2-carboxamide], the 50% effective concentration (EC50) lay in the range of 0.25 to 1 µM.

For `O=C(COc1ccc(Cl)c(F)c1)NC12CC(NC(=O)c3ccccc3-n3cccn3)(C1)C2` [Compound 839, N-{3-[2-(4-chloro-3-fluorophenoxy)acetamido]bicyclo[1.1.1]pentan-1-yl}-2-(1H-pyrazol-1-yl)benzamide], the EC50 was > 2 µM.

Take `O=C(COc1ccc(Cl)c(F)c1)NC12CCC(NC(=O)c3onc4ccccc34)(CC1)C(O)C2` (centres unmarked) [Compound 332, N-{4-[2-(4-chloro-3-fluorophenoxy)acetamido]-2-hydroxybicyclo[2.2.2]octan-1-yl}-2,1-benzoxazole-3-carboxamide]: the EC50 is > 2 µM.

With `CCc1nc(C(=O)NC23CC(NC(=O)COc4ccc(Cl)c(Cl)c4)(C2)C3)cs1` [Compound 698, N-{3-[2-(3,4-dichlorophenoxy)acetamido]bicyclo[1.1.1]pentan-1-yl}-2-ethyl-1,3-thiazole-4-carboxamide], the EC50 is < 0.05 µM.

Take `O=C(COc1ccc(Cl)c(F)c1)NC12CC(Nc3cnc(C(F)(F)F)nc3)(C1)C2` [Compound 755, 2-(4-chloro-3-fluorophenoxy)-N-(3-{[2-(trifluoromethyl)pyrimidin-5-yl]amino}bicyclo[1.1.1]pentan-1-yl)acetamide]: the concentration giving a half-maximal response (EC50) lay within 0.25 to 1 µM.

For the compound `Cc1cc2c(NC34CC(NC(=O)COc5ccc(F)c(F)c5)(C3)C4)nccn2n1` [Compound 436, 2-(3,4-difluorophenoxy)-N-{3-[(2-methylpyrazolo[1,5-a]pyrazin-4-yl)amino]bicyclo[1.1.1]pentan-1-yl}acetamide], the EC50 was in the range of 0.05 to 0.25 µM.

For the compound `O=C(COc1ccc(F)c(F)c1)NC12CCC(NC(=O)c3ccc(C(F)(F)F)cn3)(CC1)C(O)C2` (centres unmarked) [Compound 349, N-{4-[2-(3,4-difluorophenoxy)acetamido]-2-hydroxybicyclo[2.2.2]octan-1-yl}-5-(trifluoromethyl)pyridine-2-carboxamide], the EC50 is 0.25 to 1 µM.

As for `N#Cc1ccc(C(=O)NC23CCC(NC(=O)COc4ccc(Cl)c(F)c4)(CC2)CC3O)nc1` (centres unmarked) [Compound 170, N-{4-[2-(4-chloro-3-fluorophenoxy)acetamido]-2-hydroxybicyclo[2.2.2]octan-1-yl}-5-cyanopyridine-2-carboxamide], the EC50 was 0.05 to 0.25 µM.

As to `O=C(COc1ccc(Cl)c(F)c1)NC12CC(NC(=O)c3ccc(-c4ccccc4)cn3)(C1)C2` [Compound 928, N-{3-[2-(4-chloro-3-fluorophenoxy)acetamido]bicyclo[1.1.1]pentan-1-yl}-5-phenylpyridine-2-carboxamide], the EC50 fell in the range of 0.05 to 0.25 µM.

As for `O=C(COc1ccc(Cl)c(F)c1)NC12CC(Nc3nccn4cccc34)(C1)C2` [Compound 434, 2-(4-chloro-3-fluorophenoxy)-N-{3-[(pyrrolo[1,2-a]pyrazin-1-yl)amino]bicyclo[1.1.1]pentan-1-yl}acetamide], the EC50 is 0.25 to 1 µM.

For the compound `Cc1oc(C2CC2)cc1C(=O)NC12CC(NC(=O)COc3ccc(Cl)c(F)c3)(C1)C2` [Compound 881, N-{3-[2-(4-chloro-3-fluorophenoxy)acetamido]bicyclo[1.1.1]pentan-1-yl}-5-cyclopropyl-2-methylfuran-3-carboxamide], the EC50 is > 2 µM.

Regarding `O=C(COc1ccc(Cl)c(F)c1)NC12CCC(NC(=O)c3cccc(F)c3)(CC1)[C@@H](O)C2` [Compound 488, N-{(2S)-4-[2-(4-chloro-3-fluorophenoxy)acetamido]-2-hydroxybicyclo[2.2.2]octan-1-yl}-3-fluorobenzamide], the EC50 was in the range of 0.05 to 0.25 µM.

In the case of `O=C(COc1ccc(Cl)c(F)c1)NC12CC(NC(=O)c3ccc4ncsc4c3)(C1)C2` [Compound 773, N-{3-[2-(4-chloro-3-fluorophenoxy)acetamido]bicyclo[1.1.1]pentan-1-yl}-1,3-benzothiazole-6-carboxamide], the half-maximal effective concentration (EC50) was > 2 µM.

Turning to `Cc1cc(C(=O)NC23CC(NC(=O)COc4ccc(Cl)c(F)c4)(C2)C3)ns1` [Compound 677, N-{3-[2-(4-chloro-3-fluorophenoxy)acetamido]bicyclo[1.1.1]pentan-1-yl}-5-methyl-1,2-thiazole-3-carboxamide], the EC50 lay in the range of 0.25 to 1 µM.

In the case of `Cn1ncc2cccc(C(=O)NC34CC(NC(=O)COc5ccc(Cl)c(F)c5)(C3)C4)c21` [Compound 786, N-{3-[2-(4-chloro-3-fluorophenoxy)acetamido]bicyclo[1.1.1]pentan-1-yl}-1-methyl-1H-indazole-7-carboxamide], the EC50 was > 2 µM.

As to `O=C(COc1ccc(Cl)c(F)c1)NC12CC(Nc3cncc(-c4ccc(Cl)cc4)n3)(C1)C2` [Compound 395, 2-(4-chloro-3-fluorophenoxy)-N-(3-{[6-(4-chlorophenyl)pyrazin-2-yl]amino}bicyclo[1.1.1]pentan-1-yl)acetamide], the EC50 was > 2 µM.

With `COc1cc(C(=O)NC23CC(NC(=O)COc4ccc(Cl)c(F)c4)(C2)C3)ccn1` [Compound 763, N-{3-[2-(4-chloro-3-fluorophenoxy)acetamido]bicyclo[1.1.1]pentan-1-yl}-2-methoxypyridine-4-carboxamide], the 50% effective concentration (EC50) was > 2 µM.

On to `O=C(COc1ccc(Cl)c(F)c1)NC12CC(NC(=O)c3cccc(Cn4cncn4)c3)(C1)C2` [Compound 892, N-{3-[2-(4-chloro-3-fluorophenoxy)acetamido]bicyclo[1.1.1]pentan-1-yl}-3-[(1H-1,2,4-triazol-1-yl)methyl]benzamide], for which the EC50 was in the range of 0.25 to 1 µM.

`O=C(COc1ccc(Cl)c(F)c1)NC12CC(NC(=O)c3scc4c3OCCO4)(C1)C2` [Compound 873, N-{3-[2-(4-chloro-3-fluorophenoxy)acetamido]bicyclo[1.1.1]pentan-1-yl}-2,3-dihydrothieno[3,4-b][1,4]dioxine-5-carboxamide]: the EC50 is > 2 µM.

`O=C(COc1ccc(Cl)c(F)c1)NC12CC(NC(=O)c3cnc(-c4ccccc4)o3)(C1)C2` [Compound 344, N-{3-[2-(4-chloro-3-fluorophenoxy)acetamido]bicyclo[1.1.1]pentan-1-yl}-2-phenyl-1,3-oxazole-5-carboxamide]: the EC50 is < 0.05 µM.
